Test results from patent publication US20190008779A1, “GEMCABENE COMPOSITIONS AND METHODS OF USE THEREOF” (GEMPHIRE THERAPEUTICS INC., priority 2017, published 2019).
Like-named read-outs stand apart in the source and are kept apart here. One block for each compound: values may come before it.

Experiments:
[1] = Pharmacokinetic analysis after a single oral dose to male dogs (plasma atorvastatin, metabolites, gemcabene); type: in vivo, beagle dogs; conditions: administered in the absence of atorvastatin calcium versus with atorvastatin calcium (FIG. 15)
[2] = system: hypercholesterolemic human subjects; conditions: cited from earlier work
[3] = in vivo; cited from earlier work
HMG-CoA reductase = target: T1, HMG-CoA reductase (Homo sapiens, UniProt P04035); conditions: cited from earlier work
T1 sequence (P04035 1-888): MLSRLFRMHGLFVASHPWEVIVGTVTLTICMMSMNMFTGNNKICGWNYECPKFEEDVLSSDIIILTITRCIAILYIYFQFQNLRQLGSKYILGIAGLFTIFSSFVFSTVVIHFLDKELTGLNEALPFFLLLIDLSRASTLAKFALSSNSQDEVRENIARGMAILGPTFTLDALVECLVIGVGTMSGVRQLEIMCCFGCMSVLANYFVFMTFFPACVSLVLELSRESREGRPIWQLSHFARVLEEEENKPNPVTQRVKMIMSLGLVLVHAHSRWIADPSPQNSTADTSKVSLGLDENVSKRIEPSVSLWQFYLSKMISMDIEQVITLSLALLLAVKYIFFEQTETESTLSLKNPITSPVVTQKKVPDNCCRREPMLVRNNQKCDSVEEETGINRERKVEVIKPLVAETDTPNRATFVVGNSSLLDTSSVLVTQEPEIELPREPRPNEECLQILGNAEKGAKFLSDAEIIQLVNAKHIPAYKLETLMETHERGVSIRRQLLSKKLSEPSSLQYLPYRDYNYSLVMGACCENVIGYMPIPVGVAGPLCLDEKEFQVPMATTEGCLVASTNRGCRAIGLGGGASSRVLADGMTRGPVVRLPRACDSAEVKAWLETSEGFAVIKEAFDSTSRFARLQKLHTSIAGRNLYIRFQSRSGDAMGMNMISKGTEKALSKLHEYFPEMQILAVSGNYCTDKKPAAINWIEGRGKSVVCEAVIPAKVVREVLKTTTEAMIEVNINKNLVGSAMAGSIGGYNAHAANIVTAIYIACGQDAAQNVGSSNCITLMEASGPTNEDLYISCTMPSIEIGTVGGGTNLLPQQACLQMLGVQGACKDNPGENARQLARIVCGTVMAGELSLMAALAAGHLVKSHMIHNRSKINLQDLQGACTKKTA

pharmacokinetic profile of gemcabene [1]: essentially the same
Compound: CC(C)(CCCCOCCCCC(C)(C)C(=O)O)C(=O)O [gemcabene calcium, 6,6′-oxybis(2,2-dimethylhexanoic acid)]
triglycerides ([2]; patients having type IIb hyperlipidemia, certain doses with a statin, versus either alone): surprising ability to lower triglycerides
LDL-C levels ([2]; patients on a stable dose of statin not able to reach the target LDL-C goal): further reduce LDL-C levels
plasma levels of LDL cholesterol (LDL-C) ([2]; separate administration with a statin, versus a statin alone): significantly reduce
fibrinogen ([2]; some doses with a statin, hypercholesterolemic human subjects with elevated fibrinogen levels): lower fibrinogen
c-reactive protein ([2]; with a statin, versus statin treatment alone): reduce c-reactive protein to an extent greater than the statin treatment alone
effect on the pharmacokinetics of simvastatin and atorvastatin [3]: not to significantly affect

Compound: CC(C)c1c(C(=O)Nc2ccc(O)cc2)c(-c2ccccc2)c(-c2ccc(F)cc2)n1CC[C@@H](O)C[C@@H](O)CC(=O)O [4-hydroxy-atorvastatin acid]
pharmacological activity (inhibitory activity on HMG-CoA reductase) (HMG-CoA reductase): pharmacologically equipotent to parent atorvastatin
pharmacological activity (inhibitory activity on HMG-CoA reductase) (HMG-CoA reductase; listed as 4-hydroxy-atorvastatin): active towards HMG-CoA reductase

Compound: CC(C)c1c(C(=O)Nc2ccccc2O)c(-c2ccccc2)c(-c2ccc(F)cc2)n1CCC(O)CC(O)CC(=O)O (centres unmarked) [2-hydroxy-atorvastatin acid]
pharmacological activity (inhibitory activity on HMG-CoA reductase) (HMG-CoA reductase): pharmacologically equipotent to parent atorvastatin
pharmacological activity (inhibitory activity on HMG-CoA reductase) (HMG-CoA reductase; listed as 2-hydroxy-atrovastatin): active towards HMG-CoA reductase

Compound: CC(C)c1c(C(=O)Nc2ccccc2)c(-c2ccccc2)c(-c2ccc(F)cc2)n1CC[C@@H]1C[C@@H](O)CC(=O)O1 [atorvastatin lactone]
pharmacological activity (inhibitory activity on HMG-CoA reductase) (HMG-CoA reductase): pharmacologically inactive

Compound: CC(C)c1c(C(=O)Nc2ccccc2O)c(-c2ccccc2)c(-c2ccc(F)cc2)n1CCC1CC(O)CC(=O)O1 (centres unmarked) [2-hydroxy-atorvastatin lactone]
pharmacological activity (inhibitory activity on HMG-CoA reductase) (HMG-CoA reductase): pharmacologically inactive

Compound: CC(C)c1c(C(=O)Nc2ccc(O)cc2)c(-c2ccccc2)c(-c2ccc(F)cc2)n1CCC1CC(O)CC(=O)O1 (centres unmarked) [4-hydroxy-atorvastatin lactone]
pharmacological activity (inhibitory activity on HMG-CoA reductase) (HMG-CoA reductase): pharmacologically inactive
